From patent publication US20230391786A1, “cGAS INHIBITORS” (Eli Lilly and Company, priority 2022, published 2023) come the findings set out here.

Counter-ions that a name gives are not always drawn. Like-named read-outs stand apart in the source and are kept apart here.

In experiment [1] the test system is cGAS activity in THP1 cells (IFNb as marker). The experiment in a line: Cellular assay to measure cGAS activity (IFNb production in PMA-differentiated THP1 cells stimulated by RDG-Adenovirus-GFP). Particulars: PMA differentiated, RDG-Adenovirus-GFP 1000 MOI, IFNb AlphaLISA, overnight incubation, read-out: IC50 (μM), Cellular assay for Compounds 95-348. In kind it is cell-based, human. The protocol: Cellular assay to measure cGAS activity: Use THP1 cell line from ATCC to determine inhibition of cGAS activity by test compounds in human cells. Plate cells on 96-well plates at 0.2×10^6/well and differentiate with phorbol myristate acetate (PMA) at 37° C./5% CO2. After 24 hours, replace PMA containing media with media lacking PMA and further incubate overnight. Stimulate cells were then by RDG-Adenovirus-GFP (Vector Biolabs #1768) at 1000 MOI for 4 hours prior to the addition of test compounds. After overnight incubation, transfer 10 μL of the media from each well to a new plate for IFNb analysis as a marker for cGAS activity. Measure quantification of IFNb with an IFNb AlphaLISA Detection kit (Perkin Elmer AL3133F) by mixing the acceptor beads with the cell supernatant followed by the addition of the biotinylated antibody and donor beads. Measure the relative fluorescence signal produced from the interaction of the donor and acceptor beads by a PHERAStar AlphaLISA protocol and evaluate the inhibitory effect of a compound by plotting specific inhibition of IFNb production against log concentration of the test compound. Calculate IC50 values using a 4-parameter non-linear logistic equation (y=(S0+((SInf−S0)/(1+((qAC50/x)^nHill))))).

A further experiment has as its target recombinant human cGAS (Homo sapiens (Human), UniProt Q8N884). Nature of the experiment: In vitro inhibition assay of cGAS activity (cGAMP production, RapidFire mass spectrometry). In kind it is biochemical. Particulars: 10 nM recombinant human cGAS, 60 nM 75-bp dsDNA, ATP, GTP, room temperature 3 hours, read-out: IC50 (μM), In vitro inhibition assay for Compounds 95-348. The method, boiled down:
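Product cGAMP was quantified by RapidFire MS against a difluoro-cGAMP internal standard after a formic acid quench. The reaction contained 10 nM recombinant full-length human cGAS, 75-bp dsDNA (60 nM), ATP and GTP (50 μM) and ran for 3 h at room temperature. IC50 values came from 4-parameter nonlinear regression.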

Where [2] appears, read: Homo sapiens, THP-1, THP1 cells.

Chain of recombinant human cGAS (Q8N884 whole entry): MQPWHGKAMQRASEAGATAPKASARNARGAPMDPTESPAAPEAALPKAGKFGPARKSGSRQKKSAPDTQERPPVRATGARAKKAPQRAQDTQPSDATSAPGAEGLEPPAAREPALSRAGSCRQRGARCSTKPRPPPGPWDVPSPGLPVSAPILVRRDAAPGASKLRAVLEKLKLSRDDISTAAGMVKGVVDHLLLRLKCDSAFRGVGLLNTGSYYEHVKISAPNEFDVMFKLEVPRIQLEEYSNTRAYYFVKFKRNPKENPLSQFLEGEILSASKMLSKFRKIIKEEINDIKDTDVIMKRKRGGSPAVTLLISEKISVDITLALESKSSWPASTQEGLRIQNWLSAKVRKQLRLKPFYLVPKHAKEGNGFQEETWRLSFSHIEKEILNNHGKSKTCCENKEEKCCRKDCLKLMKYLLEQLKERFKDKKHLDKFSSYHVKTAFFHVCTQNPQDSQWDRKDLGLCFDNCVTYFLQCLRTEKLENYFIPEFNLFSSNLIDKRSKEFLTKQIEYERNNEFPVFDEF

Turning to `CCOc1cc(Cl)c(Cl)c2c1c(-c1cn[nH]c1)c1n2CC[C@@H]1NC(C)=O` [Example 233, (S)—N-(5,6-Dichloro-8-ethoxy-9-(1H-pyrazol-4-yl)-2,3-dihydro-1H-pyrrolo[1,2-a]indol-1-yl)acetamide], the half-maximal inhibitory concentration (IC50) in experiment [1] (setting [2]) came to 1.13 µM; on recombinant human cGAS, 0.0806 µM.
As to `N#CCOc1cc(Cl)c(Cl)c2c1c(-c1cn[nH]c1)c1n2CCN(C(=O)Cn2cncn2)C1` [Example 287, 2-((2-(2-(1H-1,2,4-Triazol-1-yl)acetyl)-6,7-dichloro-10-(1H-pyrazol-4-yl)-1,2,3,4-tetrahydropyrazino[1,2-a]indol-9-yl)oxy)acetonitrile], the 50% inhibitory concentration (IC50) was determined as 5.11 µM in experiment [1] (setting [2]) and 0.0203 µM at recombinant human cGAS.
In the same order, the values of `N#CCOc1cc(Cl)c(Cl)c2c1c(-c1cn[nH]c1)cn2-c1cn(CCO)nn1` [Example 197, 22-[6,7-Dichloro-1-[1-(2-hydroxyethyl)triazol-4-yl]-3-(1H-pyrazol-4-yl)indol-4-yl]oxyacetonitrile] are 1.06 µM and 0.00893 µM.
As to `OCCCNc1cc(Cl)cc2c1c(-c1cn[nH]c1)cn2-c1cn(CCO)nn1` [Example 200, 3-[[6-Chloro-1-[1-(2-hydroxyethyl)triazol-4-yl]-3-(1H-pyrazol-4-yl)indol-4-yl]amino]propan-1-ol], the results for the IC50 (in experiment [1] (setting [2]); on recombinant human cGAS) were 0.292 µM and 0.0282 µM, respectively.
For `CS(=O)(=O)NC1CCn2c1c(-c1cn[nH]c1)c1ccc(Cl)c(Cl)c12` (stereo not shown) [Example 238, N-(5,6-Dichloro-9-(1H-pyrazol-4-yl)-2,3-dihydro-1H-pyrrolo[1,2-a]indol-1-yl)methanesulfonamide] the same measures were more than 10 µM and 0.046 µM.
`COc1cc2c(-c3cn[nH]c3)cn(-c3ccc(CO)nn3)c2cc1Cl` [Example 342, (6-(6-chloro-5-methoxy-3-(1H-pyrazol-4-yl)-1H-indol-1-yl)pyridazin-3-yl)methanol]: the IC50 came out at 0.964 µM in experiment [1] (setting [2]) and 0.0261 µM on recombinant human cGAS.
For `O[C@H]1CC[C@@H](Oc2cc(Cl)c(Cl)c3[nH]cc(-c4cn[nH]c4)c23)C1` (racemic) [Example 100, Cis-3-((6,7-Dichloro-3-(1H-pyrazol-4-yl)-1H-indol-4-yl)oxy)cyclopentan-1-ol (racemic mixture)] the same measures were more than 10 µM and 0.0356 µM.
For `COCc1[nH]c2c(Cl)c(Cl)cc(NC(=O)C(F)F)c2c1-c1cn[nH]c1` [Example 132, N-(6,7-Dichloro-2-(methoxymethyl)-3-(1H-pyrazol-4-yl)-1H-indol-4-yl)-2,2-difluoroacetamide] the same measures were 0.317 µM and 0.0202 µM.
For `O=C(Nc1cc(Cl)c(Cl)c2c1c(-c1cn[nH]c1)c1n2CCN(C(=O)Cc2cnccn2)C1)C(F)F` [Example 277, N-[6,7-Dichloro-2-(2-pyrazin-2-ylacetyl)-10-(1H-pyrazol-4-yl)-3,4-dihydro-1H-pyrazino[1,2-a]indol-9-yl]-2,2-difluoro-acetamide] the same measures were 1.58 µM and 0.0445 µM.
For the compound `Cn1cnc(C(=O)N2CCn3c(c(-c4cn[nH]c4)c4c(OCC#N)cc(Cl)c(Cl)c43)C2)n1` [Example 283, 2-((6,7-Dichloro-2-(1-methyl-1H-1,2,4-triazole-3-carbonyl)-10-(1H-pyrazol-4-yl)-1,2,3,4-tetrahydropyrazino[1,2-a]indol-9-yl)oxy)acetonitrile], the IC50 in experiment [1] (setting [2]) stood at 4.27 µM; at recombinant human cGAS it was 0.0106 µM.
Take `CNCC(=O)NCc1[nH]c2c(Cl)c(Cl)ccc2c1-c1cn[nH]c1` [Example 217, N-[[6,7-Dichloro-3-(1H-pyrazol-4-yl)-1H-indol-2-yl]methyl]-2-(methylamino)acetamide formic acid salt]: the IC50 in experiment [1] (setting [2]) amounted to 2.12 µM; at recombinant human cGAS, 0.0794 µM.
In the same order, the values of `O=C(Nc1cc(Cl)c(Cl)c2[nH]c(CO)c(-c3cn[nH]c3)c12)C(F)F` [Example 131, N-(6,7-Dichloro-2-(hydroxymethyl)-3-(1H-pyrazol-4-yl)-1H-indol-4-yl)-2,2-difluoroacetamide] are 0.163 µM and 0.0131 µM.
In the same order, the values of `F[C@H]1C[C@@H](Nc2cc(Cl)c(Cl)c3[nH]cc(-c4cn[nH]c4)c23)C1` [Example 208, Cis-6,7-Dichloro-N-(3-fluorocyclobutyl)-3-(1H-pyrazol-4-yl)-1H-indol-4-amine] are 2.54 µM and 0.0416 µM.
With `NCCCCCC(=O)NCC(=O)NC1CCc2c(-c3cn[nH]c3)c3ccc(Cl)c(Cl)c3n2C1` (stereo not shown) [Example 196, 6-Amino-N-[2-[[3,4-dichloro-10-(1H-pyrazol-4-yl)-6,7,8,9-tetrahydropyrido[1,2-a]indol-7-yl]amino]-2-oxo-ethyl]hexanamide formic acid salt], the values for the half-maximal inhibitory concentration (IC50) (in experiment [1] (setting [2]); on recombinant human cGAS) were more than 10 µM and 0.064 µM, respectively.
In the same order, the values of `CN1CCOCC1C(=O)N1CCn2c(c(-c3cn[nH]c3)c3ccc(Cl)c(Cl)c32)C1` (stereo not shown) [Example 309, (6,7-Dichloro-10-(1H-pyrazol-4-yl)-3,4-dihydropyrazino[1,2-a]indol-2(1H)-yl)(4-methylmorpholin-3-yl)methanone] are more than 10 µM and 0.0427 µM.
`N#CCNc1cc(Cl)c(Cl)c2c1c(-c1cn[nH]c1)c1n2CCNC1=O` [Example 135, 2-[[6,7-Dichloro-1-oxo-10-(1H-pyrazol-4-yl)-3,4-dihydro-2H-pyrazino[1,2-a]indol-9-yl]amino]acetonitrile]: the IC50 in experiment [1] (setting [2]) was more than 10 µM; at recombinant human cGAS, 0.0486 µM.
For `CN(C)C(=O)CC(=O)N1CCn2c(c(-c3cn[nH]c3)c3ccc(Cl)c(Cl)c32)C1` [Example 302, 3-(6,7-Dichloro-10-(1H-pyrazol-4-yl)-3,4-dihydropyrazino[1,2-a]indol-2(1H)-yl)-N,N-dimethyl-3-oxopropanamide] the same measures were 6.95 µM and 0.0323 µM.
In the same order, the values of `O=C(CO)NCc1[nH]c2c(Cl)c(Cl)ccc2c1-c1cn[nH]c1` [Example 162, N-[[6,7-Dichloro-3-(1H-pyrazol-4-yl)-1H-indol-2-yl]methyl]-2-hydroxy-acetamide] are 0.761 µM and 0.0152 µM.
For `Cc1nc(C)n(CC(=O)N2CCn3c(c(-c4cn[nH]c4)c4c(OCC#N)cc(Cl)c(Cl)c43)C2)n1` [Example 293, 2-((6,7-Dichloro-2-(2-(3,5-dimethyl-1H-1,2,4-triazol-1-yl)acetyl)-10-(1H-pyrazol-4-yl)-1,2,3,4-tetrahydropyrazino[1,2-a]indol-9-yl)oxy)acetonitrile], the half-maximal inhibitory concentration (IC50) is more than 10 µM in experiment [1] (setting [2]) and 0.0447 µM at recombinant human cGAS.
Take `N#CCOc1cc(Cl)c(Cl)c2[nH]nc(-c3cn[nH]c3)c12` [Example 249, 2-[[6,7-Dichloro-3-(1H-pyrazol-4-yl)-1H-indazol-4-yl]oxy]acetonitrile]: the IC50 is 2.32 µM in experiment [1] (setting [2]) and 0.0306 µM on recombinant human cGAS.
Consider `Clc1ccc2c(-c3cn[nH]c3)c(-c3nnc(C4CC4)o3)[nH]c2c1Cl` [Example 160, 2-Cyclopropyl-5-(6,7-dichloro-3-(1H-pyrazol-4-yl)-1H-indol-2-yl)-1,3,4-oxadiazole], for which the IC50 was determined as 0.536 µM in experiment [1] (setting [2]) and 0.0787 µM on recombinant human cGAS.
For `OCCC1CCn2c1c(-c1cn[nH]c1)c1ccc(Cl)c(Cl)c12` (single isomer, unassigned; isomer 1) [Example 242, 2-(5,6-Dichloro-9-(1H-pyrazol-4-yl)-2,3-dihydro-1H-pyrrolo[1,2-a]indol-1-yl)ethan-1-ol isomer 1], the results for the half-maximal inhibitory concentration (IC50) (in experiment [1] (setting [2]); at recombinant human cGAS) were more than 10 µM and 0.464 µM, respectively.
As to `O=C(NCc1[nH]c2c(Cl)c(Cl)ccc2c1-c1cn[nH]c1)C1COC1` [Example 224, N-[[6,7-Dichloro-3-(1H-pyrazol-4-yl)-1H-indol-2-yl]methyl]oxetane-3-carboxamide], the IC50 in experiment [1] (setting [2]) came to 2.73 µM; on recombinant human cGAS, 0.0704 µM.
As for `OCCC1CCn2c1c(-c1cn[nH]c1)c1ccc(Cl)c(Cl)c12` (single isomer, unassigned; isomer 2) [Example 243, 2-(5,6-Dichloro-9-(1H-pyrazol-4-yl)-2,3-dihydro-1H-pyrrolo[1,2-a]indol-1-yl)ethan-1-ol isomer 2], the concentration for half-maximal inhibition (IC50) in experiment [1] (THP1 cells) came out at 9.35 µM; at recombinant human cGAS, 0.0472 µM.
As for `O[C@H]1CC[C@@H](Nc2cc(Cl)c(Cl)c3[nH]cc(-c4cn[nH]c4)c23)C1` (single isomer, unassigned; isomer 2) [Example 210, Cis-3-[[6,7-Dichloro-3-(1H-pyrazol-4-yl)-1H-indol-4-yl]amino]cyclopentanol, isomer 2], the results for the half-maximal inhibitory concentration (IC50) (in experiment [1] (setting [2]); at recombinant human cGAS) were 2.17 µM and 0.0365 µM, respectively.
For `O=C(CO)NC1CCn2c1c(-c1cn[nH]c1)c1ccc(Cl)c(Cl)c12` (stereo not shown) [Example 237, N-(5,6-Dichloro-9-(1H-pyrazol-4-yl)-2,3-dihydro-1H-pyrrolo[1,2-a]indol-1-yl)-2-hydroxyacetamide], the half-inhibitory concentration (IC50) in experiment [1] (setting [2]) worked out at 1.74 µM; at recombinant human cGAS, 0.015 µM.

A word on the IC50: it is the concentration needed to halve the response being measured.
